{"source": "paper PMC4694998", "about": "“Suppression of β-catenin/TCF transcriptional activity and colon tumor cell growth by dual inhibition of PDE5 and 10” (Oncotarget, 2015)", "key": {"HCT116 colon tumor cells [1]": {"tested_on": "HCT116 colon tumor cells", "test": "Apoptosis assay (Caspase 3/7 Glo), HCT116", "assay_type": "cell-based, human", "conditions": "caspase-3 and -7, 6 hours of treatment", "method": "Cells were plated in 96-well microtiter plates at a density of 10,000 cells per well, and allowed to attach overnight. Cells were treated with ADT-094 or vehicle, and incubated at 37°C for 6 hours. All apoptosis assays were done in 5% serum using either tumor cells or normal colonocytes. The induction of apoptosis caused by treatment was determined using Caspase 3/7 Glo Assay (Promega), which is a luminescent assay that measures substrate cleavage by caspases-3 and -7. The assay was done according to manufacturer’s specifications."}, "HCT116 colon tumor cells [2]": {"tested_on": "HCT116 colon tumor cells", "test": "Growth assay (Cell Titer Glo), HCT116", "assay_type": "cell-based, human", "conditions": "Homo sapiens, HCT-116; 72 hours of treatment; read-out: HCT116 growth IC50", "method": "All cell lines were expanded upon delivery, and numerous aliquots of low passage cells were preserved in liquid N2. Cells were passaged no longer than 2 months. Tumor cell lines obtained from ATCC were characterized by STR profiling as performed by ATCC. The NCM460 line was characterized by INCELL as described previously (e.g. tumorigenicity testing). No additional re-authentication of the cell lines was performed except for experimental reasons (e.g. confirmation of cell doubling time, morphology, sensitivity to SS, PDE5/10 expression levels, etc). Cells were plated in 96-well microtiter plates at a density of 5,000 cells per well. For drug treatment, cells were treated with compound or vehicle, and incubated at 37°C for 72 hours. […] For siRNA assays, cells were transfected with siRNA under the same condition described above. The effect of treatment on cell growth was measured using the Cell Titer Glo Assay as specified by the manufacturer (Promega). The IC50 values were determined as described previously. All experiments were repeated a minimum of three times to determine the reproducibility of the results. All error bars represent standard error of the mean (SEM). Statistical analysis of differences between samples was performed using the Student’s t-test."}, "purified ovine COX-1": {"biological_target": "T1, purified ovine COX-1 (Ovis aries, UniProt P05979)", "T1 construct": "purchased Cayman", "T1 sequence (P05979 25-600)": "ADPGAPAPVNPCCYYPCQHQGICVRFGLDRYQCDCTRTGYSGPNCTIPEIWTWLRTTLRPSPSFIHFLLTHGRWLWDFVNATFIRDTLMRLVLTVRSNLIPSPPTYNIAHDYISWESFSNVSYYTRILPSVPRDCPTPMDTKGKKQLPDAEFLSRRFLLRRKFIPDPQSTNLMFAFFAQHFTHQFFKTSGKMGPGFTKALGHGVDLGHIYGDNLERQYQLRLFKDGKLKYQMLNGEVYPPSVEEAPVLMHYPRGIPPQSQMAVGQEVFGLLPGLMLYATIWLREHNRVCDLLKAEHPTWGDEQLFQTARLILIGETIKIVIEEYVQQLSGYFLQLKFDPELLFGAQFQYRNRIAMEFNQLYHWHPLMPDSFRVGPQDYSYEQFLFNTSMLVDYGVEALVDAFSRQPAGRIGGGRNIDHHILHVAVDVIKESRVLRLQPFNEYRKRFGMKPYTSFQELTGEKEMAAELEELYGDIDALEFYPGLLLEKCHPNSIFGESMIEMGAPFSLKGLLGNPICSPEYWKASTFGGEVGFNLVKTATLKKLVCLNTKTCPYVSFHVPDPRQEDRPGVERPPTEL", "test": "COX-1 colorimetric assay", "assay_type": "biochemical", "method": "COX-1 and COX-2 activities were measured using purified ovine COX-1 and COX-2 with colorimetric assay kits obtained from Cayman as previously reported. The activities of COX-1 and COX-2 were measured after the addition of arachidonic acid and incubation at 25°C for 5 min by absorbance at 590 nm as specified by the manufacturer.\nThe IC50 values were determined as described previously. All experiments were repeated a minimum of three times to determine the reproducibility of the results. All error bars represent standard error of the mean (SEM). Statistical analysis of differences between samples was performed using the Student’s t-test. A P value of < 0.05 was considered statistically significant."}, "[3]": {"tested_on": "β-catenin/TCF transcriptional activity in HCT116 cells", "assay_type": "cell-based", "conditions": "HCT116, 24 hours of treatment", "method": "Cells were seeded at a density of 5 × 10^4 cells per well in 24-well tissue culture plates and incubated overnight at 37°C. Cells were transiently transfected with 0.1 μg TOP-FLASH constructs (Millipore) and 0.1 μg β-galactosidase-expressing vector (Promega). After 24 hours of transfection, cells were treated with ADT-094 or vehicle for 24 hours. At the end of treatment, cells were lysed and both luciferase and β-galactosidase activities were measured using kits from Promega. All luciferase activity was normalized to β-galactosidase activity."}, "[4]": {"tested_on": "intracellular cGMP in HCT116 colon tumor cells", "test": "cGMP assay (EIA), HCT116", "assay_type": "cell-based, human", "conditions": "45 min of treatment", "method": "Cells were plated at a density of 1 × 10^6 cells per 10 cm tissue culture dish, incubated for 48 hours, and treated with ADT-094 or vehicle control. After 45 min of treatment, cells were lysed and assayed for cGMP content using the cGMP Direct Biotrak EIA kit (GE Healthcare Life Sciences). The assay was done according to the manufacturer’s specifications."}, "HCT116 colon tumor cells [5]": {"tested_on": "HCT116 colon tumor cells", "test": "Cell proliferation assay (EdU incorporation, flow cytometry)", "assay_type": "cell-based, human", "conditions": "24 hours treatment with 0.1 μmol/L", "method": "The antiproliferative activity of ADT-094 was determined by measuring EdU (5-ethynyl-2′-deoxyuridine) incorporation during DNA synthesis. Cells were plated at a density of 1.5 × 10^6 cells per 10 cm tissue culture dish and incubated overnight at 37°C. After growing the cells in serum-free media overnight, the cells were treated with ADT-094 or vehicle in medium supplemented with 10% serum for 6 hours. A final concentration of 10 μmol/L EdU was added to each dish and incubated for an additional 18 hours. Cells were harvested and analyzed using the Click-iT EdU Alexa Fluor 488 Proliferation Assay (Invitrogen) according to the manufacturer’s specifications. The percentage of proliferating cells was quantified using a BD FACSCalibur flow cytometer."}}}
{"smiles": "COc1ccc2c(c1)C(CC(=O)NCc1ccco1)=C(C)/C2=C/c1cc(OC)c(OC)c(OC)c1", "note": "[ADT-094, (Z)-N-(furan-2-ylmethyl)-2-(5-methoxy-2-methyl-1-(3,4,5-trimethoxybenzylidene)-1H-inden-3-yl) acetamide]", "values": [{"measurement": "caspase activity (apoptosis)", "setting": "HCT116 colon tumor cells [1]", "value": "increased caspase activity"}, {"measurement": "IC50", "setting": "HCT116 colon tumor cells [2]", "value": 0.1, "unit": "µM"}, {"measurement": "IC50", "setting": "purified ovine COX-1; Figure 3A", "value": 81, "unit": "µM"}, {"measurement": "COX-1 inhibitory activity", "setting": "purified ovine COX-1; in words", "value": "essentially lacks"}, {"measurement": "β-catenin/TCF transcriptional activity", "setting": "[3]", "value": "significantly inhibited"}, {"measurement": "intracellular cGMP levels", "setting": "[4]", "value": "significantly increased"}, {"measurement": "proliferation (EdU incorporation)", "setting": "HCT116 colon tumor cells [5]", "value": "inhibited the proliferation"}]}
